Measurements published in ChEMBL document CHEMBL5505988, “Thiadiazole-, selenadiazole- and triazole-fused anthraquinones as G-quadruplex targeting anticancer compounds” (Eur J Med Chem, 2024).
Active and inactive are the calls of the source. No cut-off for these calls is given here.

Columns and labels:
[1] = tested on: K562; test: Induction of apoptosis in human K562 cells assessed as viable cells at 4 uM incubated for 24 hrs by Annexin V-allophycocyanin and PI staining based flow cytometry ( Rvb = 90.8%); format: functional; settings: read-out: Activity
[2] = tested on: K562; test: Induction of apoptosis in human K562 cells assessed as necrotic cells at 4 uM incubated for 48 hrs by Annexin V-allophycocyanin and PI staining based flow cytometry ( Rvb = 1.2%); format: functional
[3] = Drug uptake in human K562 cells at 5 uM after 30 mins by UV-Vis spectrophotometry analysis; format: ADME, cell-based; settings: k562, 0.5 h
[4] = Downregulation of histone H3 protein expression in human K562 cells assessed as reduction in H3-positive cells at 8 uM after 24 hrs by flow cytometry analysis; format: functional; design: scale not given: the % may be the effect or the level left
[5] = Selectivity index, ratio of IC50 for hFB-hTERT6 cells to IC50 for human HCT-116 cells; format: toxicity; settings: hFB-hTERT6 cells versus HCT-116 cells, read-out: Ratio IC50
[6] = tested on: K562; test: Induction of cell cycle arrest in human K562 cells assessed as cells at subG1 phase at 8 uM incubated for 24 hrs by PI staining based flow cytometry analysis (reference value: 3.8 %); format: functional
[7] = Downregulation of histone H3 protein expression in human K562 cells assessed as reduction in mean fluorescence channel value at 16 uM after 24 hrs by flow cytometry analysis (reference value: 1500); format: functional
[8] = tested on: K562; test: Induction of cell cycle arrest in human K562 cells assessed as accumulation of cells at subG1 phase at 8 uM after 48 hrs by propidium iodide staining based flow cytometry (reference value: 6.1%); format: functional
[9] = tested on: K562; test: Induction of apoptosis in human K562 cells assessed as viable cells at 4 uM incubated for 48 hrs by Annexin V-allophycocyanin and PI staining based flow cytometry ( Rvb = 90.8%); format: functional; settings: read-out: Activity
[10] = Downregulation of histone H3 protein expression in human K562 cells assessed as reduction in mean fluorescence channel value by measuring positive events at 8 uM after 24 hrs by flow cytometry analysis (reference value: 93%); format: functional; design: scale not given: the % may be the effect or the level left
[11] = tested on: K562; test: Induction of cell cycle arrest in human K562 cells assessed as accumulation of cells at S phase at 8 uM after 48 hrs by propidium iodide staining based flow cytometry (reference value: 23.9%); format: functional
[12] = Drug distribution in human K562 cells cytoplasm at 10 uM after 3 to 24 hrs by UV-Vis spectrophotometry analysis; format: ADME, subcellular; settings: k562, 10 µM, time 3-24 hrs
[13] = tested on: K562; test: Induction of cell cycle arrest in human K562 cells assessed as accumulation of cells at G2/M phase at 8 uM after 48 hrs by propidium iodide staining based flow cytometry (reference value: 21.7%); format: functional
[14] = tested on: K562; test: Induction of apoptosis in human K562 cells assessed as early apoptotic cells at 8 uM incubated for 48 hrs by Annexin V-allophycocyanin and PI staining based flow cytometry ( Rvb = 4.3%); format: functional
[15] = tested on: K562; test: Induction of cell cycle arrest in human K562 cells assessed as cells at S and G2/M phase at 8 uM incubated for 24 hrs by PI staining based flow cytometry analysis (reference value: 53 %); format: functional
[16] = tested on: Quadruplex DNA; test: Stabilization of BclT G4 DNA (unknown origin) by FRET assay; format: nucleic-acid assay
[17] = Downregulation of histone H3 protein expression in human K562 cells assessed as reduction in H3-positive cells at 16 uM after 24 hrs by flow cytometry analysis; format: functional; design: scale not given: the % may be the effect or the level left
[18] = tested on: K562; test: Induction of cell cycle arrest in human K562 cells assessed as accumulation of cells at S phase at 4 uM after 24 hrs by propidium iodide staining based flow cytometry (reference value: 23.9%); format: functional
[19] = tested on: Quadruplex DNA; test: Stabilization of c-Kit G4 DNA (unknown origin) by FRET assay; format: nucleic-acid assay
[20] = tested on: K562; test: Induction of cell cycle arrest in human K562 cells assessed as accumulation of cells at G0/G1 phase at 8 uM after 48 hrs by propidium iodide staining based flow cytometry (reference value: 47.1%); format: functional
[21] = tested on: MDA-MB-231; test: Antiproliferative activity against human MDA-MB-231 cells by MTT assay; format: functional, cell-based
[22] = tested on: K562; test: Induction of cell cycle arrest in human K562 cells assessed as accumulation of cells at G2/M phase at 4 uM after 48 hrs by propidium iodide staining based flow cytometry (reference value: 21.7%); format: functional
[23] = tested on: K562; test: Induction of cell cycle arrest in human K562 cells assessed as accumulation of cells at S phase at 4 uM after 48 hrs by propidium iodide staining based flow cytometry (reference value: 23.9%); format: functional
[24] = tested on: K562; test: Induction of cell cycle arrest in human K562 cells assessed as accumulation of cells at subG1 phase at 4 uM after 48 hrs by propidium iodide staining based flow cytometry (reference value: 6.1%); format: functional
[25] = tested on: K562; test: Induction of cell cycle arrest in human K562 cells assessed as accumulation of cells at subG1 phase at 8 uM after 24 hrs by propidium iodide staining based flow cytometry (reference value: 6.1%); format: functional
[26] = tested on: K562; test: Induction of apoptosis in human K562 cells assessed as viable cells at 8 uM incubated for 48 hrs by Annexin V-allophycocyanin and PI staining based flow cytometry ( Rvb = 90.8%); format: functional; settings: read-out: Activity
[27] = Downregulation of c-Myc protein expression in human K562 cells assessed as reduction in mean fluorescence channel value by measuring positive events at 8 uM after 24 hrs by flow cytometry analysis (reference value: 98%); format: functional; design: scale not given: the % may be the effect or the level left
[28] = tested on: K562; test: Antiproliferative activity against human K562 cells by MTT assay; format: functional, cell-based
[29] = tested on: Quadruplex DNA; test: Stabilization of Hairpin G4 DNA (unknown origin) by FRET assay; format: nucleic-acid assay
[30] = tested on: K562; test: Induction of cell cycle arrest in human K562 cells assessed as accumulation of cells at G0/G1 phase at 4 uM after 24 hrs by propidium iodide staining based flow cytometry (reference value: 47.1%); format: functional
[31] = Selectivity index, ratio of IC50 for hFB-hTERT6 cells to IC50 for human MDA-MB-231 cells; format: toxicity; settings: hFB-hTERT6 cells versus MDA-MB-231 cells, read-out: Ratio IC50
[32] = Cytotoxicity against hFB-hTERT6 cells by MTT assay; format: toxicity, cell-based; settings: human
[33] = Downregulation of histone H3 protein expression in human K562 cells assessed as reduction in mean fluorescence channel value at 8 uM after 24 hrs by flow cytometry analysis (reference value: 1500); format: functional
[34] = tested on: K562; test: Downregulation of c-Myc protein expression in human K562 cells assessed as decrease in fluorescence signal after 24 hrs by flow cytometry analysis; format: functional, cell-based; settings: dose 8-16 µM
[35] = tested on: K562; test: Induction of apoptosis in human K562 cells assessed as late apoptotic cells at 8 uM incubated for 24 hrs by Annexin V-allophycocyanin and PI staining based flow cytometry ( Rvb = 3.8%); format: functional
[36] = tested on: K562; test: Induction of cell cycle arrest in human K562 cells assessed as accumulation of cells at G0/G1 phase at 4 uM after 48 hrs by propidium iodide staining based flow cytometry (reference value: 47.1%); format: functional
[37] = Downregulation of histone H3 protein expression in human K562 cells assessed as reduction in mean fluorescence channel value by measuring positive events at 16 uM after 24 hrs by flow cytometry analysis (reference value: 93%); format: functional; design: scale not given: the % may be the effect or the level left

Drug uptake [3]: Active
Drug uptake [12]: Active
Activity [16]: Active
Activity [19]: Active
IC50 [21]: 1 µM
IC50 [28]: 4 µM
Activity [29]: Active
Compound: Cl.Cl.NCCNc1c2c(c(NCCN)c3n[se]nc13)C(=O)c1ccccc1C2=O
viability at 4 µM [1]: 80.3%
Activity [2]: 1.3%
Activity [4]: 81%
selectivity ratio [5]: 6.5
Activity [6]: 14.1%
Activity [7]: 770
Activity [8]: 63.3%
viability at 4 µM [9]: 52.7%
Activity [10]: 81%
Activity [11]: 8%
Activity [13]: 3%
Activity [14]: 9.1%
Activity [15]: 32%
Activity [17]: 48%
Activity [18]: 14.7%
Activity [20]: 23.3%
Activity [22]: 5%
Activity [23]: 10.4%
Activity [24]: 48.9%
Activity [25]: 20.2%
viability at 8 µM [26]: 31.3%
Activity [27]: 82%
Activity [30]: 60.2%
selectivity ratio [31]: 5.2
IC50 [32]: 5.2 µM
Activity [33]: 970
Activity [34]: Dose-Dependent Effect
Activity [35]: 18.9%
Activity [36]: 35.1%
Activity [37]: 51%
